The values below come from ChEMBL document CHEMBL1146070, “Investigating the role of stereochemistry in the activity of anticancer acylfulvenes: synthesis, reductase-mediated bioactivation, and cellular toxicity” (J Med Chem, 2006).

The experiment deals with HEK293. Put plainly: Cytotoxicity against HEK293 cells by MTT assay. The experiment is classed as functional, cell-based. The conditions noted are these: Homo sapiens. (In general: Tetrazolium assays rely on reduction of a dye to a coloured formazan, in cell work by metabolically active cells.)

In general, IC50 refers to the midpoint of a concentration-inhibition curve. A higher IC50 goes with weaker potency in that assay. Take `CC1=CC2=C(C)C3(CC3)[C@@](C)(O)C(=O)C2=C1` [ACYLFULVENE]: the IC50 is 1.4 µM. As for `CC1=C(CO)C2=C(C)C3(CC3)[C@@](C)(O)C(=O)C2=C1` [IROFULVEN], the figure is 1.2 µM.
